Four compounds from patent US12298319B2, “Method for measuring alpha value of muscarinic M1 receptor positive allosteric modulators” (Takeda Pharmaceutical Company Limited, priority 2017, dated 2025) can be followed below.

For data set [1], the system named is scopolamine-induced cognitive deficits in mice. In words: Y-maze task, scopolamine-induced cognitive deficits. In kind it is in vivo, mouse. The settings on record: for scopolamine-induced cognitive deficits in Y-maze task: 5-min measurement. How it is done:
The Y-maze apparatus has a three-arm maze with equal angles between all arms and made of black colored acrylic. Each arm consisted of 40 cm length, 4 cm width, and 12 cm walls. The Y-maze was located in a sound-attenuated room and illuminated at 10 lux. Compound B (10 or 30 mg/kg) and Compound A (1, 3 or 10 mg/kg) were pretreated orally at 60 min prior to the testing. After 30 min, memory impairment was induced by administering scopolamine (0.3 or 1 mg/kg, as hydrobromide salt, s.c.). At 30 min after the administration of scopolamine, mice were placed in the Y-maze and then spontaneous alternation performance was assessed visually for 5 to 8 min. Each animal underwent one trial. A mouse was considered to have entered an arm when all four paws were positioned in one third of the arm runway from the center of the Y maze. Alternations were defined as successive entries into each of the three arms on overlapping triplet sets, and alternation rate, expressed as a percentage, referred to the ratio of actual (total alternations) to possible alternations (total arm entries−2)×100.

Data set [2] can be described thus: Pharmacokinetics after oral administration to mice. Format: in vivo, mouse. The settings on record: for Cmax / Tmax / AUC(0-t): mouse, plasma, po; for AUC(0-t): read-out: AUC0-4 h. How it is done: Plasma concentration of Compound B at 30 and 1000 mg/kg. Plasma samples were collected at 0.5, 1, 2, 4 and 6 h after oral treatment. Results represent the mean. n=3 per group.

Data set [3] relates to isolated mouse ileum. The data set can be described thus: In vitro Magnus method, spontaneous ileum motility. The settings on record: cumulative concentrations. How it is done: After overnight fasting, mice were sacrificed. The ileum was quickly dissected out and suspended in ice-cold Krebs solution with the following composition (in mM): NaCl, 120.7; KCl, 5.9; CaCl2, 2.5; MgCl2, 1.2; NaHCO3, 15.5; NaH2PO4, 1.2; and glucose, 11.5. Longitudinal segments of ileum (10-15 mm long) were detached of mesentery and adipose tissue, and mounted in organ baths containing 10 mL of Krebs solution aerated with 95% O2/5% CO2. Bath temperature was maintained at 37° C. The isolated ileum was given a passive load of 0.5 g. The contractile response of the isolated ileum was continuously recorded with isometric transducer (MLT050/A, ADInstruments, New South Wales, Australia) and recorder (PowerLab 8/30 ML870 and Octal Bridge Amp ML228, ADInstruments). […]
The contraction was measured as the maximum strength from the baseline. The effects of experimental substances on the maximum contraction were measured. […] The effect of each concentration of the compounds on ileum spontaneous contraction induced was calculated from the average value of 6 responses of the maximum strength. Then the ileum contractile response was expressed as a ratio of the mean maximum contraction to that obtained with the pre-treated DMSO (solvent). […] Due to very small size of relaxations, the effects of the compounds on them was not be analyzed.

Data set [4] deals with T1, human M1R (Homo sapiens, UniProt P11229).
T1 sequence (P11229 1-460): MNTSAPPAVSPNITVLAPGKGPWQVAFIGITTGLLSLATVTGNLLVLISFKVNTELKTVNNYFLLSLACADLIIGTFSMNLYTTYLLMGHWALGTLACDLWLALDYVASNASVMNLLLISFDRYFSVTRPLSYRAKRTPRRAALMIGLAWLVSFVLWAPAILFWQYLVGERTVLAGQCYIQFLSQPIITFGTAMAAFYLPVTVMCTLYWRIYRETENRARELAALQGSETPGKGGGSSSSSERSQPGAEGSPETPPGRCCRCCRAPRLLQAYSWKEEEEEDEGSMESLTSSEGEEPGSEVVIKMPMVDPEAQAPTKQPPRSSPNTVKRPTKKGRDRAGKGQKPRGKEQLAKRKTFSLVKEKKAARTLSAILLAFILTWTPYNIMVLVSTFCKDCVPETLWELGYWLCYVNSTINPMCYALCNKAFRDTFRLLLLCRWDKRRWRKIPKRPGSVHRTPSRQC
The data set can be described thus: Ca2+ flux assay in CHO-K1 cells expressing human M1 receptors (EC20 ACh). In kind it is cell-based. Set-up: expressed in transfected cells. The settings on record: for EC50: potentiating EC20 ACh, read-out: IP value for human M1R. How it is done:
CHO-K1 cells expressing human M1 receptors were plated on a 96-well black clear bottom plate (Corning, New York, NY) at 30,000 cells/well, and cultured at 37° C. and 5% CO2 for 1 day. The medium was removed and the cells were incubated with calcium dye buffer (HBSS (Life Technologies, Carlsbad, CA), 20 mM HEPES (Life Technologies), 0.1% fatty acid-free BSA (Wako), 0.08% pluronic F127 (Dojindo Laboratories, Kumamoto, Japan), 2.5 μg/mL Fluo-4 (Dojindo Laboratories), 1.25 mM probenecid (Dojindo Laboratories)) for 30 min at 37° C. and 5% CO2. After 30 min incubation at room temperature, the cells were stimulated with various concentrations of test compounds dissolved in assay buffer (HBSS (Life Technologies), 20 mM HEPES (Life Technologies), 0.1% fatty acid-free BSA (Wako)) containing EC20 concentrations (0.8-1 nM) of ACh and Ca^2+ response was measured using CeilLux (PerkinElmer). For determination of positive allosteric modulation activity of M1PAMs, the response to EC20 ACh was set as the 0% response and the response to 10 μM ACh was set as the 100% response. The potency of M1PAMs was shown as the value of inflection point (IP). IP value and 95% confidence intervals were calculated by XLfit of GraphPad Prism 5 Software (GraphPad Software Inc., LaJolla, CA, USA) from the data expressed as % of control.
(In general: A change in cytosolic calcium serves as a functional read-out for many receptors and channels.)

Where two headings read alike, the source gives them in different places.

As for `Cn1cc(-c2ccc(CN3Cc4cccc(Oc5c(F)cccc5C#N)c4C3=O)cc2)cn1` [Compound B, 3-fluoro-2-((2-(4-(1-methyl-1H-pyrazol-4-yl)benzyl)-3-oxo-2,3-dihydro-1H-isoindol-4-yl)oxy)benzonitrile], the “scopolamine-induced cognitive deficits in Y-maze task” value in data set [1] (30 mg/kg p.o.) is “significantly ameliorated”. Moreover, in data set [2] (30 mg/kg p.o.), the Cmax (in general, the peak of the concentration-time curve) is 270 ng/mL; the Tmax (as a rule, the time at which the peak concentration occurs) is 2 h; the AUC(0-t) was determined as 800 ng·h/mL. Moreover, in data set [2] (1000 mg/kg p.o.), the highest concentration (Cmax) turned out to be 970 ng/mL, the Tmax stood at 1.7 h and the AUC(0-t) is 3020 ng·h/mL. The “plasma concentration at 1000 mg/kg relative to 30 mg/kg” value in data set [2] (p.o.) was determined as 3.6 fold.

In the case of `Cn1ccc(-c2ccc(CN3Cc4cccc(O[C@H]5CCCC[C@@H]5O)c4C3=O)cc2)n1` [Compound A, 7-(((1S,2S)-2-hydroxycyclohexyl)oxy)-2-(4-(1-methyl-1H-pyrazol-3-yl)benzyl)isoindolin-1-one], the “scopolamine-induced cognitive deficits in Y-maze task” value in data set [1] (10 mg/kg p.o.) is given as “trends to improve”. Also, the “scopolamine-induced decrease in spontaneous alternation ratio in Y-maze task” value in data set [1] (10 mg/kg p.o., 8 min measurement) is listed as “significantly ameliorated”.

In the case of `Cc1c(Cc2ccc(-n3cccn3)cc2)cc2c(c1F)CN([C@H]1COCC[C@@H]1O)C2=O` [Compound D, 4-fluoro-2-[(3S,4S)-4-hydroxytetrahydro-2H-pyran-3-yl]-5-methyl-6-[4-(1H-pyrazol-1-yl)benzyl]-2,3-dihydro-1H-isoindol-1-one], the spontaneous ileum motility result in data set [3] was “lower impact on ileum motility”. Also, the EC50 in data set [4] was 2.7 nM. The “M1R selectivity over other human muscarinic receptor subtypes” value in data set [4] (vs M2-M5R) is reported as “not less than 3700 fold”.

As to `Cn1cc(-c2ccc(Cc3cc4c(=O)n([C@H]5CCCC[C@@H]5O)cnc4c4ccccc34)cn2)cn1` [Compound C, 3-((1S,2S)-2-hydroxycyclohexyl)-6-((6-(1-methyl-1H-pyrazol-4-yl)pyridin-3-yl)methyl)benzo[h]quinazoline-4(3H)-one, reference compound], the spontaneous ileum motility result in data set [3] was “strengthened the spontaneous ileum motility in a concentration-dependent manner”. The EC50 in data set [4] was 0.62 nM.
